Data from patent US12209081B2 (Katholieke Universiteit Leuven, priority 2020, dated 2025).

Molecular target: mouse TRPM3α2 (mTRPM3) ion channel (Mus musculus (Mouse), UniProt J9SQF3)
Assay: TRPM3 ion channel driven Ca2+ uptake, Fluo-4 AM assay, mTRPM3alpha2 overexpressing flip-in HEK293 cells stimulated with pregnenolone sulfate
Assay type: cell-based
Method: Part B Monitoring the TRPM3 Ion Channel Driven Ca^2+ Uptake.
In order to monitor the inhibition of the mouse TRPM3α2 (mTRPM3) ion channel by the compounds of the invention, a cellular system making use of an mTRPM3alpha2 or hTRPM3 overexpressing cell line (flip-in HEK293) was used. The TRPM3 channel was stimulated/opened with Pregnenolone sulfate (PS) (50 μM) which results in Ca^2+ influx.
For mTRPM3, the intracellular Ca^2+ was measured with a Calcium responsive dye. Fluor-4 AM ester (Invitrogen). Cells were cultured until a confluence of 80-90%, washed with Versene (Invitrogen) and detached from the surface by a short incubation with 0.05% Trypsin (Invitrogen). The trypsination process was stopped by the addition of complete cell culture medium (DMEM, glutamax, 10% FCS,NEAA,Pen-Strep). Cells were collected and resuspended in Krebs buffer without Calcium at RT.
Prior the cell seeding (±2000 cells/well into a black, 384 well plate (Greiner)) the diluted compound was added in the assay plate, together with the PS dissolved in Krebs buffer containing Calcium. […] Directly after cell addition the plates were read on an Envision fluorescence reader (Perkin Elmer) by an Excitation of 485 nm and emission at 535 nm.
Channel inhibition was calculated compared to a non-PS stimulated control versus a condition stimulated with PS (50 μM) with vehicle. The ability of the compounds of the invention to inhibit this activity was determined as: Percentage inhibition=[1-((RFU determined for sample with test compound present—RFU determined for sample with positive control inhibitor) divided by (RFU determined in the presence of vehicle—RFU determined for sample with positive control inhibitor))]*100.

[1] = PS (50 μM) stimulated, cpds. 667-751
[2] = PS (50 μM) stimulated, cpds. 500-599
[3] = PS (50 μM) stimulated, cpds. 400-499
[4] = PS (50 μM) stimulated, cpd 001-199
[5] = PS (50 μM) stimulated, cpds. 608-666

mouse TRPM3α2 (mTRPM3) ion channel, sequence (J9SQF3 other isoform, or with tags, fused parts or gaps): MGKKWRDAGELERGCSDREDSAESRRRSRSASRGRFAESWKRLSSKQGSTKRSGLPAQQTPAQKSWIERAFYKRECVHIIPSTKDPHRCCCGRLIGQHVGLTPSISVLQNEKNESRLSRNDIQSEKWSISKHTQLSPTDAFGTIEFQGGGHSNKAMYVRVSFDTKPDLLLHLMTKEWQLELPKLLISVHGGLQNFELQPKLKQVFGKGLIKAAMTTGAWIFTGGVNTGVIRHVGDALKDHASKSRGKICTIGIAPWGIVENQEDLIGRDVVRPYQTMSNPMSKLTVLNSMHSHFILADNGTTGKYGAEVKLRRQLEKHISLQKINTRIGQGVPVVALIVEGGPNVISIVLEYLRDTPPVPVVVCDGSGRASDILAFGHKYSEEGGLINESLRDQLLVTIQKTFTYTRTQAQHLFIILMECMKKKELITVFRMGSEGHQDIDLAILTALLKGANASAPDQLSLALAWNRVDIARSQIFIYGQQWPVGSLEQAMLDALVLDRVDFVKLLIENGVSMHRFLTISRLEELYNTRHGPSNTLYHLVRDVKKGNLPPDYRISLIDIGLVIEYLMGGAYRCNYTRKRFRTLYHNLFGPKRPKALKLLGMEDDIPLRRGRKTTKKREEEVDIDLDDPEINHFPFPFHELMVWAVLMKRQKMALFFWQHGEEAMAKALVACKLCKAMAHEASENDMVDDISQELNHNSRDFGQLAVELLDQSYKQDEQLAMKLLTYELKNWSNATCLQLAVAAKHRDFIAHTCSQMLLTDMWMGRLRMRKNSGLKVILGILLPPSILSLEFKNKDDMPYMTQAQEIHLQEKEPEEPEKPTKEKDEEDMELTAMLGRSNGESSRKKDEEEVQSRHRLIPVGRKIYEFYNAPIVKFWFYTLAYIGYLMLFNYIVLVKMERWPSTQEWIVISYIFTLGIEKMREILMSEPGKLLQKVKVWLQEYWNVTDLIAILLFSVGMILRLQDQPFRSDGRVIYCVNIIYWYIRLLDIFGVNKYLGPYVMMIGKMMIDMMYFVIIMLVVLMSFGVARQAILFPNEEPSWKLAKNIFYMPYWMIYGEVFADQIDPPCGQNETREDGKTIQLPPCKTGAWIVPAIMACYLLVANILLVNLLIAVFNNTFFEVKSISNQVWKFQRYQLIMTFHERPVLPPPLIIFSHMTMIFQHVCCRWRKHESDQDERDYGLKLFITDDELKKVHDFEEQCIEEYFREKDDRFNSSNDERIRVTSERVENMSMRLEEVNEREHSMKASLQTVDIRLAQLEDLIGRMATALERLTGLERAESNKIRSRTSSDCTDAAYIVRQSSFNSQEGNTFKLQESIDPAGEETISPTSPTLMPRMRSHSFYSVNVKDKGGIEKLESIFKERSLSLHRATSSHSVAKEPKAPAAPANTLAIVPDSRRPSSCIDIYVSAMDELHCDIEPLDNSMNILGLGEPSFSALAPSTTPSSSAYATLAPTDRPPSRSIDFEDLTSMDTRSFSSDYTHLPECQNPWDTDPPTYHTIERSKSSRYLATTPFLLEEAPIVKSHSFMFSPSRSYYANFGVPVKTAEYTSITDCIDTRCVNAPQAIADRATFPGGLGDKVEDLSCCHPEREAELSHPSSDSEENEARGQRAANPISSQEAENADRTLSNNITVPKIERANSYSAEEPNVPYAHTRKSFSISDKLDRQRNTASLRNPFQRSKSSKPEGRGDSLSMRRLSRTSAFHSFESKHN

Question: For `Cc1oc2ccc(OCc3c(Cl)cnn3C)cc2c1C(=O)N[C@@H](CO)C(N)=O` [compound 670, (S)-N-(1-Amino-3-hydroxy-1-oxopropan-2-yl)-5-((4-chloro-1-methyl-1H-pyrazol-5-yl)methoxy) -2-methylbenzofuran-3-carboxamide], which IC50 [1] is on record?
Answer: < 1 µM

Question: `Cc1csc(COc2ccc3oc(C)c(C(=O)NC4CCNCC4(F)F)c3c2)n1` (single isomer, unassigned) [cpd 552-En 1] was tested. Which IC50 [2] did it give?
Answer: < 1 µM

Question: With `Cc1oc2ccc(OCc3ncccc3F)cc2c1C(=O)NC1CCNCC1(F)F` (single isomer, unassigned) [cpd 566-En 1] as the compound, how does the IC50 [2] read?
Answer: < 1 µM

Question: For `COc1ncccc1COc1ccc2oc(C)c(C(=O)NC3(C(N)=O)CC3)c2c1` [compound 480, N-(1-carbamoylcyclopropyl)-5-((2-methoxypyridin-3-yl)methoxy)-2-methylbenzofuran-3-carboxamide], which IC50 [3] is on record?
Answer: < 1 µM

Question: For `Cc1oc2c(C#N)cc(OCc3cccnc3C(F)(F)F)cc2c1C(=O)NC1CCNCC1(F)F` (single isomer, unassigned) [196-En 1, 7-cyano-N-(3,3-difluoropiperidin-4-yl)-2-methyl-5-((2-(trifluoro-methyl)pyridin-3-yl)methoxy)benzofuran-3-carboxamide], which IC50 [4] is on record?
Answer: > 20 µM

Question: With `Cc1ncsc1COc1ccc2oc(C)c(C(=O)NCC(C)(C)O)c2c1` [compound 506, N-(2-hydroxy-2-methylpropyl)-2-methyl-5-((4-methylthiazol-5-yl)methoxy)benzofuran-3-carboxamide] as the compound, how does the IC50 [2] read?
Answer: < 1 µM

Question: Which IC50 [4] does the source give for `Cc1ncsc1COc1ccc2oc(C)c(C(=O)n3ccc(N)n3)c2c1` [compound 192, (3-amino-1H-pyrazol-1-yl) (2-methyl-5-((4-methylthiazol-5-yl)methoxy)benzofuran-3-yl) -methanone] here?
Answer: > 20 µM

Question: For `Cc1oc2ccc(OCc3cccnc3C(F)(F)F)cc2c1C(=O)Nc1ccnn1C` [compound 154, 2-methyl-N-(1-methyl-1H-pyrazol-5-yl)-5-((2-(trifluoromethyl)pyridin-3-yl)methoxy)benzofuran-3-carboxamide], which IC50 [4] is on record?
Answer: < 1 µM

Question: `Cc1ncsc1COc1ccc2oc(C)c(C(=O)NC3(CCO)CCOC3)c2c1` (single isomer, unassigned) [121-En 1, N-(3-(2-hydroxyethyl)tetrahydrofuran-3-yl)-2-methyl-5-((4-methylthiazol-5-yl)methoxy)benzo-furan-3-carboxamide] was tested. Which IC50 [4] did it give?
Answer: < 1 µM

Question: `Cc1ncsc1COc1ccc2oc(C)c(C(=O)N(C)C3(C(N)=O)COC3)c2c1` [compound 589, N-(3-carbamoyloxetan-3-yl)-N,2-dimethyl-5-((4-methylthiazol-5-yl)methoxy)benzofuran-3-carboxamide] was tested. Which IC50 [2] did it give?
Answer: 1 to 20 µM

Question: How did the IC50 [3] turn out when `Cc1ncsc1COc1ccc2oc(C)c(C(=O)NC(CO)CN(C)C)c2c1` (single isomer, unassigned) [413-En 1, N-(1-(dimethylamino)-3-hydroxypropan-2-yl)-2-methyl-5-((4-methylthiazol-5-yl)methoxy)benzofuran-3-carboxamide] was run?
Answer: < 1 µM

Question: How did the IC50 [2] turn out when `Cc1oc2ccc(OCc3cccnc3C(F)(F)F)cc2c1C(=O)NC1CCNCC1(F)F` (single isomer, unassigned) [cpd 539-En 2] was run?
Answer: < 1 µM

Question: With `COc1ncccc1COc1ccc2oc(C)c(C(=O)NC(C)(CO)CO)c2c1` [compound 431, N-(1,3-dihydroxy-2-methylpropan-2-yl)-5-((2-methoxypyridin-3-yl)methoxy)-2-methylbenzofuran-3-carboxamide] as the compound, how does the IC50 [3] read?
Answer: < 1 µM

Question: How did the IC50 (PS 50 μM, cpds 300-399) turn out when `Cc1ncsc1COc1ccc2oc(C)c(C(=O)NCCS(C)(=O)=O)c2c1` [compound 323, 2-methyl-N-(2-(methylsulfonyl)ethyl)-5-((4-methylthiazol-5-yl)methoxy)benzofuran-3-carboxamide] was run?
Answer: < 1 µM

Question: Which IC50 [2] does the source give for `Cc1oc2ccc(OCc3cncs3)cc2c1C(=O)NC1CCNCC1(F)F` (single isomer, unassigned) [cpd 561-En 1] here?
Answer: < 1 µM

Question: With `Cc1ncc(COc2ccc3oc(C)c(C(=O)NC(C)(CO)C(N)=O)c3c2)o1` (single isomer, unassigned) [cpd 722-En 1] as the compound, how does the IC50 [1] read?
Answer: < 1 µM

Question: `Cc1ncsc1COc1ccc2oc(C)c(C(=O)NC(C)c3ncco3)c2c1` (single isomer, unassigned) [cpd 315-En 1] was tested. Which IC50 (PS 50 μM, cpds 300-399) did it give?
Answer: < 1 µM

Question: Which IC50 [1] does the source give for `Cc1oc2ccc(OCc3cccnc3OC3CC3)cc2c1C(=O)NC1(CO)CCOCC1` [compound 711, 5-((2-cyclopropoxypyridin-3-yl)methoxy)-N-(4-(hydroxymethyl)tetrahydro-2H-pyran-4-yl)-2-methylbenzofuran-3-carboxamide] here?
Answer: < 1 µM

Question: With `Cc1oc2ccc(OCc3cccnn3)cc2c1C(=O)NC(C)(C)C(N)=O` [compound 441, N-(1-amino-2-methyl-1-oxopropan-2-yl)-2-methyl-5-(pyridazin-3-ylmethoxy)benzofuran-3-carboxamide] as the compound, how does the IC50 [3] read?
Answer: < 1 µM

Question: Which IC50 [3] does the source give for `Cc1ncc(COc2ccc3oc(C)c(C(=O)NC4(CO)CCC4)c3c2)s1` [compound 414, N-(1-(hydroxymethyl)cyclobutyl)-2-methyl-5-((2-methylthiazol-5-yl)methoxy)benzofuran-3-carboxamide] here?
Answer: < 1 µM

Question: With `Cc1ncsc1COc1ccc2oc(C)c(C(=O)NC3CCCCNC3=O)c2c1` (single isomer, unassigned) [cpd 661-En 1] as the compound, how does the IC50 [5] read?
Answer: < 1 µM

Question: Which IC50 [1] does the source give for `Cc1oc2ccc(OCc3cncs3)cc2c1C(=O)N[C@@H](CO)C(N)=O` [compound 697, (S)-N-(1-Amino-3-hydroxy-1-oxopropan-2-yl)-2-methyl-5-(thiazol-5-ylmethoxy)benzofuran-3-carboxamide] here?
Answer: < 1 µM

Question: For `Cc1ncsc1COc1ccc2oc(C)c(C(=O)NC3(CO)CCOCC3)c2c1` [compound 054, N-(4-(hydroxymethyl)tetrahydro-2H-pyran-4-yl)-2-methyl-5-((4-methylthiazol-5-yl)methoxy)-benzofuran-3-carboxamide], which IC50 [4] is on record?
Answer: < 1 µM

Question: With `Cc1oc2ccc(OCc3cccnc3C(F)(F)F)cc2c1C(=O)NC(C)(C)CCO` [compound 651, N-(4-hydroxy-2-methylbutan-2-yl)-2-methyl-5-((2-(trifluoromethyl)pyridin-3-yl)methoxy)benzofuran-3-carboxamide] as the compound, how does the IC50 [5] read?
Answer: < 1 µM

Question: How did the IC50 [5] turn out when `Cc1ncsc1COc1ccc2oc(C)c(C(=O)N(CCO)C3CCC3)c2c1` [compound 660, N-cyclobutyl-N-(2-hydroxyethyl)-2-methyl-5-((4-methylthiazol-5-yl)methoxy)benzofuran-3-carboxamide] was run?
Answer: > 20 µM

Question: For `Cc1oc2ccc(OCc3cccnc3C(F)(F)F)cc2c1C(=O)NC1(CN)CCC1` [compound 136, N-(1-(aminomethyl)cyclobutyl)-2-methyl-5-((2-(trifluoromethyl)pyridin-3-yl)methoxy)benzofuran-3-carboxamide], which IC50 [4] is on record?
Answer: < 1 µM

Question: Which IC50 [1] does the source give for `Cc1cnc(COc2ccc3oc(C)c(C(=O)N[C@@H](CO)C(N)=O)c3c2)s1` [compound 684, (S)-N-(1-Amino-3-hydroxy-1-oxopropan-2-yl)-2-methyl-5-((5-methylthiazol-2-yl)methoxy)benzofuran-3-carboxamide] here?
Answer: < 1 µM

Question: With `Cc1oc2ccc(OCc3ccc(OCCO)cn3)cc2c1C(=O)NC1CCNCC1(F)F` (single isomer, unassigned) [cpd 567-En 1] as the compound, how does the IC50 [2] read?
Answer: > 20 µM

Question: With `Cc1oc2ccc(OCc3cccnc3C(F)(F)F)cc2c1C(=O)NC1CNCC1(F)F` (single isomer, unassigned) [cpd 105-En 1, N-(4,4-difluoropyrrolidin-3-yl)-2-methyl-5-((2-(trifluoromethyl)pyridin-3-yl)methoxy)benzofuran-3-carboxamide] as the compound, how does the IC50 [4] read?
Answer: < 1 µM

Question: Which IC50 (PS 50 μM, cpds 300-399) does the source give for `Cc1oc2ccc(OCc3cccnc3N(C)C)cc2c1C(=O)NC1(CO)CCOCC1` [compound 344, 5-((2-(dimethylamino)pyridin-3-yl)methoxy)-N-(4-(hydroxymethyl)tetrahydro-2H-pyran-4-yl)-2-methylbenzofuran-3-carboxamide] here?
Answer: < 1 µM

Question: How did the IC50 [3] turn out when `Cc1ncsc1COc1ccc2oc(C)c(C(=O)NC(C)CO)c2c1` (single isomer, unassigned) [cpd 491-En 1] was run?
Answer: < 1 µM

Question: How did the IC50 (PS 50 μM, cpds 300-399) turn out when `CNC(=O)[C@H](CO)NC(=O)c1c(C)oc2ccc(OCc3cnc(C)s3)cc12` [compound 305, (S)-N-(3-hydroxy-1-(methylamino)-1-oxopropan-2-yl)-2-methyl-5-((2-methylthiazol-5-yl)methoxy)benzofuran-3-carboxamide] was run?
Answer: < 1 µM

Question: Which IC50 [3] does the source give for `Cc1ncsc1COc1ccc2oc(C)c(C(=O)NC(C)(C)C(N)=O)c2c1` [compound 440, N-(1-amino-2-methyl-1-oxopropan-2-yl)-2-methyl-5-((4-methylthiazol-5-yl)methoxy)benzofuran-3-carboxamide] here?
Answer: < 1 µM

Question: With `Cc1oc2ccc(OCc3cccnc3O)cc2c1C(=O)NC1(C(N)=O)CCC1` [compound 473, N-(1-carbamoylcyclobutyl)-5-((2-hydroxypyridin-3-yl)methoxy)-2-methylbenzofuran-3-carboxamide] as the compound, how does the IC50 [3] read?
Answer: < 1 µM

Question: `Cc1ncc(COc2ccc3oc(C)c(C(=O)NC4(CO)CCNC4)c3c2)s1` (single isomer, unassigned) [530-En 2, N-(3-(hydroxymethyl)pyrrolidin-3-yl)-2-methyl-5-((2-methylthiazol-5-yl)methoxy)benzofuran-3-carboxamide] was tested. Which IC50 [2] did it give?
Answer: < 1 µM
